Measurements taken from patent US20250314644A1, “METHODS COMPRISING DETECTION OF ADP-HEPTOSE” (CHILDREN'S HOSPITAL MEDICAL CENTER, priority 2023, published 2025).

Experiments:
[1] = system: Dnmt3a^−/− HSCs relative to WT HSCs; test: In vitro HSC competition assay; format: cell-based, mouse; settings: co-culture, ADP-heptose for 14 days
Text: The polyvinyl alcohol-based in vitro HSC expansion protocol was adapted as previously described. (Wilkinson, A. C., et al. Long-term ex vivo haematopoietic-stem-cell expansion allows nonconditioned transplantation. Nature 571, 117-121 (2019) and Wilkinson, A. C., Ishida, R., Nakauchi, H. & Yamazaki, S. Long-term ex vivo expansion of mouse hematopoietic stem cells. Nat Protoc 15, 628-648 (2020).) 50 HSCs from WT-GFP (C57BL/6-Tg(UBC-GFP)30Scha/J, Cat no. 004353, Jackson Labs) and 50 HSCs from Dnmt3a^−/− mice were sorted directly into each well of a fibronectin-coated 96-well plate (Cat no. 08-774-60, Fisher Scientific) with Ham's F12 nutrient mix media (Cat no. 11765054, Thermo Fisher Scientific) containing final concentrations of 1× penicillin-streptomycin-glutamine (Cat no. 10378-016, Thermo Fisher Scientific), 10 mM HEPES (Cat no. 15630080, Thermo Fisher Scientific), 1× insulin-transferrin-selenium-ethanolamine (ITS-X, Cat no. 51500056, Thermo Fisher Scientific), 100 ng/mL recombinant murine TPO (Cat no. […] After 14 days of ADP-heptose treatment, cells were harvested, counted by trypan blue exclusion assay, and analyzed by flow cytometry. To enumerate cells, a defined number of CountBright Absolute Counting Beads (Thermo Fisher Scientific, Cat no. C36950) were added to each sample and cell count was back calculated to the proportion of the total that were run through the cytometer.

WT HSCs = test: ADP-heptose treatment of low-dose irradiated chimeric mice: donor HSC number and engraftment; format: in vivo, mouse; settings: ADP-heptose 0.5 mg/kg for 2 weeks
Text: To model pre-leukemic clonal hematopoiesis, chimeric mice were generated as aas follows. Briefly, mixture of 1×10^6 whole bone marrow cells (WBM) were obtained from Poly (I:C) treated wild-type (Dnmt3a^+/+; MxCre^+, called Dnmt3a^WT) or mutant mice (Dnmt3a^f/f; MxCre^+, called Dnmt3a^KO) or double mutant mice (Dnmt3a^f/f; MxCre^+; Alpk1^KO, called Dnmt3a^KO; Alpk1^KO) (CD45.2^+), and transplanted into low-dose (2.5 Gy) irradiated recipient mice (CD45.1^+; 6-10 weeks of age). 8 weeks post-transplant, chimeric mice were treated with either water (H2O) or DSS (2.5%) for 1 week, and allowed to recover for 1 more week on water after which flow cytometry was performed on BM. In separate experiment, chimeric mice were pre-treated with broad spectrum antibiotics (ABX) for 4 weeks, and then subjected to DSS for 1 week after which flow cytometry performed on BM. In a separate set of experiment, chimeric mice were treated with either H2O or ADP-heptose (0.5 mg/kg) for 2 weeks, and flow cytometry performed after 2 more weeks on BM. In all the experiments, secondary transplantation was performed by purifying donor HSCs (CD45.2^+Lin^−Sca-1^+c-Kit^+Flk2^−CD150^+CD48^−) and transplanting 100 HSCs with 200,000 helper WBM cells (CD45.1+) into lethally irradiated (8 Gy) recipient mice (CD45.1^+), and donor chimerism in PB examined by flow cytometry.

Nc1ncnc2c1ncn2[C@@H]1O[C@H](COP(=O)(O)OP(=O)(O)O[C@@H]2O[C@H]([C@H](O)CO)[C@@H](O)[C@H](O)[C@@H]2O)[C@@H](O)[C@H]1O [ADP-heptose, ADP-D-glycero-β-D-manno-heptose]
in vitro competition of Dnmt3a^−/− HSCs relative to WT HSCs [1]: competitive advantage | WT HSCs numbers and engraftment in recipient mice (WT HSCs): did not affect
